In assay [1] the target is T1, Muscarinic acetylcholine receptor M4 (Homo sapiens, UniProt P08173).
T1 sequence (P08173 whole entry): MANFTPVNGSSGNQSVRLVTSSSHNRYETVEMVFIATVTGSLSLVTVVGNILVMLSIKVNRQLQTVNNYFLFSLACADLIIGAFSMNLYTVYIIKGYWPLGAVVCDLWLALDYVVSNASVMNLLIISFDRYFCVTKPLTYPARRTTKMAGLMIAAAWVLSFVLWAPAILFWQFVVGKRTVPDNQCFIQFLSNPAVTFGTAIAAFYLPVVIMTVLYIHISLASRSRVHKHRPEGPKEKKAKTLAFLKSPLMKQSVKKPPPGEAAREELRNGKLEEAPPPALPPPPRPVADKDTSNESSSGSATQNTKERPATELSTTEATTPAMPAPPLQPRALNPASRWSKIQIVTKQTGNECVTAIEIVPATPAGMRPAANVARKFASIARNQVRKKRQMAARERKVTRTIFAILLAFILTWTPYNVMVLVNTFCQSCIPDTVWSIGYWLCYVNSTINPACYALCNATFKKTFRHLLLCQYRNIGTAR

For assay [2], the target named is T2, Muscarinic acetylcholine receptor M5 (Homo sapiens, UniProt P08912).
T2 sequence (P08912 whole entry): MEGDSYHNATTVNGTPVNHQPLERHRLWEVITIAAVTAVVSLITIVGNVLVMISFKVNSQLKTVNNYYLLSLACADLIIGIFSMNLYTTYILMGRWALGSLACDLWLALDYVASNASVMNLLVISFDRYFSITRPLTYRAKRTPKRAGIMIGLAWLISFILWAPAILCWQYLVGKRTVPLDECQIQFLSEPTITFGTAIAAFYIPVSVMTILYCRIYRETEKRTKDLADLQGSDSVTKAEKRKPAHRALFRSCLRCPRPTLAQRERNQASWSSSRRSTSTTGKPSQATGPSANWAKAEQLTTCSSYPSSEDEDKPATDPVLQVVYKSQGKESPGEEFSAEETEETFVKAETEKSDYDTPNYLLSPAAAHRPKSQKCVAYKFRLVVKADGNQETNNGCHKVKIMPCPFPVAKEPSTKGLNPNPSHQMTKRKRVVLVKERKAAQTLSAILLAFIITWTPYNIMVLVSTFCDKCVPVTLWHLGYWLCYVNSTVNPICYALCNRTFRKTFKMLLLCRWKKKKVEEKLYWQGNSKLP

For assay [3], the target named is T3, Peroxisome proliferator-activated receptor gamma (Homo sapiens, UniProt P37231).
T3 sequence (P37231 whole entry): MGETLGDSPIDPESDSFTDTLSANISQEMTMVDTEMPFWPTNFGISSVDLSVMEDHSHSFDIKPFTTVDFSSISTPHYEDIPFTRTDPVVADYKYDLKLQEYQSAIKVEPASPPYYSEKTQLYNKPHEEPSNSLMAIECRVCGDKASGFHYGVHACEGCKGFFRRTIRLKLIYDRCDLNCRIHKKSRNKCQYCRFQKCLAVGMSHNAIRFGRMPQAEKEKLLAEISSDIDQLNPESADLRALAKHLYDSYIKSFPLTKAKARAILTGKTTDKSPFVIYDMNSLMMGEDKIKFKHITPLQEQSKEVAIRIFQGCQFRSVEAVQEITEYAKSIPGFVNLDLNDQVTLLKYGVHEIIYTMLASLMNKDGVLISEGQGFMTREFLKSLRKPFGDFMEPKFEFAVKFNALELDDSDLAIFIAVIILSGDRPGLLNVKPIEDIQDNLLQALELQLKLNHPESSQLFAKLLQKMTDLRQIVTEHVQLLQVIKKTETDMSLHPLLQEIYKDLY
Type of assay: functional.

The target of assay [4] is Voltage-dependent L-type calcium channel subunit alpha-1C (Homo sapiens, UniProt Q13936). It is filed as functional, cell-based.
The next assay addresses Cannabinoid receptor 1 (Homo sapiens, UniProt P21554). It is filed as functional.
The target in the next assay is D(1B) dopamine receptor (Homo sapiens, UniProt P21918).
Assay [5] addresses 5-hydroxytryptamine receptor 5A (Homo sapiens, UniProt P47898).
The target in the next assay is T4, Substance-K receptor (Homo sapiens, UniProt P21452).
T4 sequence (P21452 whole entry): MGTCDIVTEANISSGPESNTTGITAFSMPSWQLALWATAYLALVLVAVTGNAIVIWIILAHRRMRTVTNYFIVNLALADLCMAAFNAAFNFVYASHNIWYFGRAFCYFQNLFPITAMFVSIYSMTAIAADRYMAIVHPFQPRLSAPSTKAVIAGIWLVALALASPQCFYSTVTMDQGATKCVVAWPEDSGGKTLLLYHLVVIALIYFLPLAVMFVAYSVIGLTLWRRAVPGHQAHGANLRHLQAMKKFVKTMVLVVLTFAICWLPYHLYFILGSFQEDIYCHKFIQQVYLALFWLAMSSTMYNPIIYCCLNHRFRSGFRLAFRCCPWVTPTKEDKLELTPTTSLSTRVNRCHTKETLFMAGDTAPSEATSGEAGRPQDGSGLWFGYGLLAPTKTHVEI

Assay [6] has as its target 5-hydroxytryptamine receptor 7 (Homo sapiens, UniProt P34969).
The target in assay [7] is Hydroxycarboxylic acid receptor 2 (Homo sapiens, UniProt Q8TDS4).
Assay [8] has as its target T5, Type-2 angiotensin II receptor (Homo sapiens, UniProt P50052).
T5 sequence (P50052 whole entry): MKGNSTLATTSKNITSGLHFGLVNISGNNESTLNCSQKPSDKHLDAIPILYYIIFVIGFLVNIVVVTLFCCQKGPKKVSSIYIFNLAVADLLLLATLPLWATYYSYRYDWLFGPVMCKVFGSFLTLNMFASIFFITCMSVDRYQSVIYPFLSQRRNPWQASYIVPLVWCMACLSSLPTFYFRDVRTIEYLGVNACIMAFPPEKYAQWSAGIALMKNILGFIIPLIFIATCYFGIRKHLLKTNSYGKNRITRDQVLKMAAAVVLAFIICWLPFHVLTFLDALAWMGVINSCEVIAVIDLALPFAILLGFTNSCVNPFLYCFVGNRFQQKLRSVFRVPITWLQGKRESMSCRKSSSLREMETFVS
It is filed as functional.

The target of assay [9] is Synaptic vesicular amine transporter (Rattus norvegicus, UniProt Q01827). Type of assay: functional.

Usually AC50 stands for the concentration giving half of the maximal activity seen.
Further: assay procedure not described here.

Chain of D(1B) dopamine receptor (P21918 whole entry): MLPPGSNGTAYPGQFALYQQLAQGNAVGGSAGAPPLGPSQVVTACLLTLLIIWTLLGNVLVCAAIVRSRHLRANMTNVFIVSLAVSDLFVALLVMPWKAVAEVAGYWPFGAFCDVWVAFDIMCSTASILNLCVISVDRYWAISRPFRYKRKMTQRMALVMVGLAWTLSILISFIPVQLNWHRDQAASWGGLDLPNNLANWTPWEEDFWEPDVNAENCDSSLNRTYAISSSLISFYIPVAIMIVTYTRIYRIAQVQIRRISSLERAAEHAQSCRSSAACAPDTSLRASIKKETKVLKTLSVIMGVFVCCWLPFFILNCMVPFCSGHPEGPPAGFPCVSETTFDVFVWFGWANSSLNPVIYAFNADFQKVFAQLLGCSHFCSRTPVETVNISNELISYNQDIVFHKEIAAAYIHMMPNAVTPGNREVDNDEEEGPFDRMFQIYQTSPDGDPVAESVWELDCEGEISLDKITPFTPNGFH
Chain of Voltage-dependent L-type calcium channel subunit alpha-1C (Q13936 whole entry): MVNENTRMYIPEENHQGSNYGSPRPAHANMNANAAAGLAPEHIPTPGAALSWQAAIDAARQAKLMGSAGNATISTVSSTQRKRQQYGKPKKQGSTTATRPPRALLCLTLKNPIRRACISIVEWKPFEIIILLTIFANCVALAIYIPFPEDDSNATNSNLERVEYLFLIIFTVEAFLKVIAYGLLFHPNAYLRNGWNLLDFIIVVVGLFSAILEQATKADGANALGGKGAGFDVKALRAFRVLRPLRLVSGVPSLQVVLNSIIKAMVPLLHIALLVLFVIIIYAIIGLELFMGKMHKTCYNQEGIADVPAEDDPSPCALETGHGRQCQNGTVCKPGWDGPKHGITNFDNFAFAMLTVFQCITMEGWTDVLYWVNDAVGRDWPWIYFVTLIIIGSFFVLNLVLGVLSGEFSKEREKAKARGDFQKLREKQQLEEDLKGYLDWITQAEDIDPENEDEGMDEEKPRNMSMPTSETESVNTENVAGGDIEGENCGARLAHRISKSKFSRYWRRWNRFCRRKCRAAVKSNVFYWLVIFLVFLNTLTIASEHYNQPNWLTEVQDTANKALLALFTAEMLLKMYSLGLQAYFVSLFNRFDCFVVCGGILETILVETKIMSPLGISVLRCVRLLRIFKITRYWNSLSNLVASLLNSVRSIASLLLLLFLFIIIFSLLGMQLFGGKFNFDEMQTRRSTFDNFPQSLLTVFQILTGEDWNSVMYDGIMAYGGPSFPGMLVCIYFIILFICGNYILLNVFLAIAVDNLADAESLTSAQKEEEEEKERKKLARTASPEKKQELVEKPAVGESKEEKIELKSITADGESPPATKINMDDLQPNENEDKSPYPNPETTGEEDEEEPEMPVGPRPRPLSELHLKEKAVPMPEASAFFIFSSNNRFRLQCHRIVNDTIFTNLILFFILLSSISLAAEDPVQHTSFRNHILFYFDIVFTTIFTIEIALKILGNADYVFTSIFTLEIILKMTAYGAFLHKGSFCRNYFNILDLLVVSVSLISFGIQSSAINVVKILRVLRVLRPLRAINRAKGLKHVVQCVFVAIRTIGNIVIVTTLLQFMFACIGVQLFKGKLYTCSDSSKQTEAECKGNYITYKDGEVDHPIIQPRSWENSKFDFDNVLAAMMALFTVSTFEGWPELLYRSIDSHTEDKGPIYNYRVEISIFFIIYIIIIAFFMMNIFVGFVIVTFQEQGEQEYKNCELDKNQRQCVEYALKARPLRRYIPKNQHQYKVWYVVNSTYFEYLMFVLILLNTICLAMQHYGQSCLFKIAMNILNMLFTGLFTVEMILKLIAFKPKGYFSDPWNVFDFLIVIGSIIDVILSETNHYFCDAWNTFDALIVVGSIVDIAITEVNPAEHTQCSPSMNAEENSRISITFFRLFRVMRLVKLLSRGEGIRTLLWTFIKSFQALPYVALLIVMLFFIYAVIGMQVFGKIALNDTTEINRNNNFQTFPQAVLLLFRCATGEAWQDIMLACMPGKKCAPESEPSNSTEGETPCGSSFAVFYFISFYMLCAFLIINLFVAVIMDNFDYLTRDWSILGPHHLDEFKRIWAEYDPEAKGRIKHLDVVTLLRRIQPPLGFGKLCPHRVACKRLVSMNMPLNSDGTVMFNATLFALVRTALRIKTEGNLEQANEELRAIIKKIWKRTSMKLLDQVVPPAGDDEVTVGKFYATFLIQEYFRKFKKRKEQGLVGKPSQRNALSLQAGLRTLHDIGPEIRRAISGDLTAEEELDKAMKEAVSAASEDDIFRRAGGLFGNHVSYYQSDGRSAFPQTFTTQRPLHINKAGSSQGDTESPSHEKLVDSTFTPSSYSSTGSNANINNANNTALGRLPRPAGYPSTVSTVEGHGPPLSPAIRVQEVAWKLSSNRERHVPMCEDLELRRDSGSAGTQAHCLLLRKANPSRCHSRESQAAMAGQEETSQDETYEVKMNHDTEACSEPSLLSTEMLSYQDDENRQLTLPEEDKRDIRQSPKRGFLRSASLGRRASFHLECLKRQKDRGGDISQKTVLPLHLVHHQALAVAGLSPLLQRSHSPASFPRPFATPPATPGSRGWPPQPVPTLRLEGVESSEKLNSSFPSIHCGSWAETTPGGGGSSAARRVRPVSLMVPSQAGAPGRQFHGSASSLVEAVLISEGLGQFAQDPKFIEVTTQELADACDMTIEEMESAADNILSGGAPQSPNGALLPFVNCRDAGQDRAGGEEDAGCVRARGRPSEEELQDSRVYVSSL
Chain of Cannabinoid receptor 1 (P21554 whole entry): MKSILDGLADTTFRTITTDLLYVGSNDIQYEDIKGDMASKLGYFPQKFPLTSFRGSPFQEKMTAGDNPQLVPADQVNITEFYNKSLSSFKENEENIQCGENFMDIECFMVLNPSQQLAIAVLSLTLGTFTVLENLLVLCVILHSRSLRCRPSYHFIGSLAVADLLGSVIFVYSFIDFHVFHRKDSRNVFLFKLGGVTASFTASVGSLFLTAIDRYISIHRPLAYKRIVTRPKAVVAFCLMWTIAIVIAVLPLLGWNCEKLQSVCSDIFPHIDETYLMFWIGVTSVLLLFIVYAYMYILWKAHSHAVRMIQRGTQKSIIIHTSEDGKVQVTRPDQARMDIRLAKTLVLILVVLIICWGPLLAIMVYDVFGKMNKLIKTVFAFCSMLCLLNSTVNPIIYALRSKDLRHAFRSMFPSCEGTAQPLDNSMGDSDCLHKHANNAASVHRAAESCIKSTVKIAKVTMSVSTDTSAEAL
Chain of 5-hydroxytryptamine receptor 7 (P34969 whole entry): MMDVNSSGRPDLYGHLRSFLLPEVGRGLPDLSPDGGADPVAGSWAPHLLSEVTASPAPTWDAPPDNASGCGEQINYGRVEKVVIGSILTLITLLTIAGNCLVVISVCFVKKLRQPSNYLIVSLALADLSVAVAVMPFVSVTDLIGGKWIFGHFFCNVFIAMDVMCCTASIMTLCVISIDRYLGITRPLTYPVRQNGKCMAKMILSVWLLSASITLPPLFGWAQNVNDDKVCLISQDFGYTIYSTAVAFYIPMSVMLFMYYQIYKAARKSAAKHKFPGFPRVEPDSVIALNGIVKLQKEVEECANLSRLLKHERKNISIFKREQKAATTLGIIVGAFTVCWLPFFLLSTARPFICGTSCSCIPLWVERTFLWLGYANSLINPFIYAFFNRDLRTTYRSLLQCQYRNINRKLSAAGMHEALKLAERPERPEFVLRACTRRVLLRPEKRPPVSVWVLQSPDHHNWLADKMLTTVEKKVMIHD
Chain of 5-hydroxytryptamine receptor 5A (P47898 whole entry): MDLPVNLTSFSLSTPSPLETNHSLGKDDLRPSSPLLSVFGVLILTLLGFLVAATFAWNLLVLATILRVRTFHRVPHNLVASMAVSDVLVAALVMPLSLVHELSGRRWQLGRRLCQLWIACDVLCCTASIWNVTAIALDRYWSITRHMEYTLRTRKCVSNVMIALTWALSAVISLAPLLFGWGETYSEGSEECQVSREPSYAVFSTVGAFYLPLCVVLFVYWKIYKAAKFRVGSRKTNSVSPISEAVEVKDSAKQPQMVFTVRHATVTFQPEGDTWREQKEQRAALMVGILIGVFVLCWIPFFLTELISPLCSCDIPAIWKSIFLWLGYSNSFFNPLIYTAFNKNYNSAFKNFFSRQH
Chain of Synaptic vesicular amine transporter (Q01827 whole entry): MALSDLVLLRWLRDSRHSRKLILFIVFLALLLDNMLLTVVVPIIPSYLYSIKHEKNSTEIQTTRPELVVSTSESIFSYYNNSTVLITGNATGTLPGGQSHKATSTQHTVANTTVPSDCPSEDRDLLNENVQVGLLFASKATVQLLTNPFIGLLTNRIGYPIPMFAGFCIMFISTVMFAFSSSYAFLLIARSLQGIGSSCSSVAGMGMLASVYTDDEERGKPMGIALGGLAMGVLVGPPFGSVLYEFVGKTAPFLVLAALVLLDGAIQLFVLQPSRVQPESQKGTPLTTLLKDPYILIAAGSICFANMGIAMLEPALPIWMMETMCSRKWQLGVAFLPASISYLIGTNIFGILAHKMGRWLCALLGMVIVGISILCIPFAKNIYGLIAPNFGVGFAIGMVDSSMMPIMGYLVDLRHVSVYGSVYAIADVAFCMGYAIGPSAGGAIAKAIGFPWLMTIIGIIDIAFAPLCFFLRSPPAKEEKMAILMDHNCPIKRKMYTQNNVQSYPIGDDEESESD
Chain of Hydroxycarboxylic acid receptor 2 (Q8TDS4 whole entry): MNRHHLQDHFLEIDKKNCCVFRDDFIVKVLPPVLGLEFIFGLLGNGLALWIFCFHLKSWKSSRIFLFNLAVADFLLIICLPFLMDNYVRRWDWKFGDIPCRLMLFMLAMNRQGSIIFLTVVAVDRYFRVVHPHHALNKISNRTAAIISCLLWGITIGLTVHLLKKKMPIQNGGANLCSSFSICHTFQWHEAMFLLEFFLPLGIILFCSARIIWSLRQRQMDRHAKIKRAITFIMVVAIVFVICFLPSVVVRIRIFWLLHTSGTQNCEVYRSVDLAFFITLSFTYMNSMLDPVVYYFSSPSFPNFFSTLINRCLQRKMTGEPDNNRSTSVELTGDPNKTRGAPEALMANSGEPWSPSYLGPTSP

`C[N+]12CCC(CC1)C(OC(=O)C(O)(c1ccccc1)c1ccccc1)C2` (stereo not given): the AC50 was found to be 0.0047 µM in [1] and 0.0068 µM in assay [2].

The compound `CO/N=C(\C(=O)N[C@@H]1C(=O)N2C(C(=O)O)=CCS[C@H]12)c1csc(N)n1` [CEFTIZOXIME] yielded an AC50 in assay [3] of more than 30 µM.

Consider `CO/N=C(\C(=O)N[C@@H]1C(=O)N2C(C(=O)O)=C(CSc3nc(=O)c(=O)[nH]n3C)CS[C@H]12)c1csc(N)n1` [CEFTRIAXONE], for which the AC50 in assay [3] was more than 30 µM; in assay [4], more than 50 µM.

As for `COc1cc(N)c(Cl)cc1C(=O)NC1CCN(CCCOc2ccc(F)cc2)CC1OC` (stereo not given) [CISAPRIDE], the half-maximal activity concentration (AC50) in assay [4] was more than 50 µM.

As to `CCOC(=O)C(C)(C)Oc1ccc(Cl)cc1` [CLOFIBRATE], the half-maximal activity concentration (AC50) in assay [3] was more than 30 µM.

With `CCCCOc1ccc(C(=O)CCN2CCCCC2)cc1` [DYCLONINE], the concentration at half-maximal activity (AC50) on Cannabinoid receptor 1 is more than 10 µM; at D(1B) dopamine receptor, more than 10 µM; in [5], more than 10 µM; on Substance-K receptor it was more than 10 µM; in assay [1] it was 13.4 µM; in assay [2], 15.8 µM. Besides, in assay [6], the concentration at half-maximal activity (AC50) is more than 10 µM.

Consider `CC(C)NC[C@H](O)COc1ccc(CC(N)=O)cc1` [ESATENOLOL], for which the concentration at half-maximal activity (AC50) (on Cannabinoid receptor 1; in [6]) was more than 10 µM in each case.

Take `NNC(=O)c1ccncc1` [ISONIAZID]: the concentration at half-maximal activity (AC50) (at Cannabinoid receptor 1; in assay [6]) was more than 10 µM throughout.

For `O=C1Nc2ccc(Cl)cc2C(c2ccccc2Cl)=NC1O` (stereo not given) [LORAZEPAM], the AC50 is more than 10 µM in assay [7] and more than 100 µM in [8].

`Cc1ccnc2c1NC(=O)c1cccnc1N2C1CC1` [NEVIRAPINE]: the half-maximal activity concentration (AC50) (on Cannabinoid receptor 1; on D(1B) dopamine receptor; in assay [5]; on Substance-K receptor; in [1]; in [2]) was more than 10 µM throughout. The compound further displayed an AC50 in assay [6] of more than 10 µM.

As for `Fc1ccc([C@@H]2CCNC[C@H]2COc2ccc3c(c2)OCO3)cc1` [PAROXETINE], the AC50 at Cannabinoid receptor 1 was more than 10 µM; in assay [9] it was 2500 nM; in [4], more than 50 µM; on D(1B) dopamine receptor, more than 10 µM; in assay [5] it was 5.63 µM; on Substance-K receptor, more than 10 µM. Further, the concentration at half-maximal activity (AC50) in assay [1] was 3.47 µM; in assay [8], more than 100 µM; in assay [6] it was more than 10 µM.

In turn, `CCC(=O)O[C@](Cc1ccccc1)(c1ccccc1)[C@H](C)CN(C)C` [PROPOXYPHENE] came in with a half-maximal activity concentration (AC50) in assay [7] of more than 10 µM.

Take `CCOC(=O)[C@@H](N)Cc1ccc(-c2cc(O[C@H](c3ccc(Cl)cc3-n3ccc(C)n3)C(F)(F)F)nc(N)n2)cc1` [TELOTRISTAT ETHYL]: in [3], the AC50 is more than 30 µM.

Take `CCCCCCCC(=O)CC[C@@H]1[C@@H](C/C=C\CCCC(=O)OC(C)C)[C@@H](O)C[C@H]1O` [UNOPROSTONE ISOPROPYL]: the concentration at half-maximal activity (AC50) in assay [4] was more than 50 µM.

As to `CC(c1cc2ccccc2s1)N(O)C(N)=O` (stereo not given) [ZILEUTON], the AC50 in assay [9] was more than 30000 nM.
